Results taken from BigSolDB 2.1.

CNC(=O)c1cc(Oc2ccc(N)cc2)ccn1
solubility (mole fraction)
Conditions	in THF	in acetonitrile	in ethanol	in ethyl acetate	in methanol	in n-butanol	in n-propanol
278.15 K	0.0898	0.0273	0.00539	0.0528	0.00809	0.00322	0.00451
283.15 K	0.0978	0.0317	0.00707	0.0637	0.0117	0.0044	0.00593
288.15 K	0.108	0.0394	0.00914	0.0773	0.0158	0.00563	0.00778
293.15 K	0.118	0.0491	0.0136	0.0919	0.0203	0.00781	0.0111
298.15 K	0.129	0.0595	0.0179	0.11	0.0276	0.00986	0.0135
303.15 K	0.143	0.0737	0.0249	0.129	0.0369	0.0132	0.0181
308.15 K	0.158	0.0897	0.0331	0.151	0.0488	0.0171	0.0237
313.15 K	0.173	0.109	0.044	0.179	0.0634	0.0222	0.0308
318.15 K	0.192	0.133	0.0587	0.207	0.082	0.0287	0.0396
323.15 K	0.211	0.161	0.0764	0.238	0.105	0.0366	0.0503
328.15 K	0.233	0.195	0.0999	0.28	0.134	0.0466	0.0638
